From US20240376094A2, “SELECTIVE BCL-XL PROTAC COMPOUNDS AND METHODS OF USE” (Les Laboratoires Servier, priority 2021, published 2024)

Key:
Type in all cases: cell-based
COR-L105 = assay: CellTiter-Glo proliferation assay, COR-L105; conditions: Homo sapiens, COR-L105, 120 h, COR-L105, 5 days
Experimental: (§1) The BCL-xL degrader compounds were tested against two endogenous cancer cell lines: • COR-L105: ECACC No. 92031918 cultured in RPMI-1640+10% FBS • NCI-H1650: (ATCC No. CRL-5883 cultured in RPMI-1640+10% FBS
(§2) The ability of the BCL-xL degrader low molecular weight compounds to inhibit cell proliferation and survival was assessed using the Promega CellTiter-Glo® proliferation assay.
(§3) Cell lines were cultured in media that is optimal for their growth at 5% CO2, 37° C. in a tissue culture incubator. Prior to seeding for the proliferation assay, the cells were split at least 2 days before the assay to ensure optimal growth density. On the day of seeding, adherent cells were lifted off tissue culture flasks using 0.25% trypsin. Cell viability and cell density were determined using a cell counter (Vi-Cell XR Cell Viability Analyzer, Beckman Coulter). Cells with higher than 85% viability were seeded for the assay.
(§4) The COR-105 cell line was seeded in white, clear bottom 384-well TC treated plates (Corning cat. #3765). Cells were seeded at a density of 1,000 cells per well in 45 μL of standard growth media. Plates were incubated at 5% CO2, 37° C. overnight in a tissue culture incubator. The NCI-H1650 cell line was seeded in black, clear round bottom 384-well ultra-low attachment spheroid microplates (Corning cat. #3830). Cells were seeded at a density of 3,000 cells per well in 45 uL of standard growth media. Plates were spun in a centrifuge for 5 minutes and 1,000 RPM. Plates were incubated at 5% CO2, 37° C. for 72 hours in a tissue culture incubator.
(§5) On the day of dosing, BCL-xL degrader low molecular weight compounds were prepared at 1 OX in standard growth media. The prepared drug treatments were then added to the cells resulting in final concentrations of 0.508 nM-10 μM and a final volume of 50 μL per well. Each drug concentration was tested in quadruplets. Plates were incubated at 5% CO2, 37° C. for 5 days in a tissue culture incubator.
(§6) For COR-L105 plates, cell viability was assessed through the addition of 25 μL of CellTiter Glo® (Promega, cat #G7573), a reagent which lyses cells and measures total adenosine triphosphate (ATP) content. Plates were incubated at room temperature for 10 minutes to stabilize luminescent signals prior to reading with a luminescence reader (EnVision Multilabel Plate Reader, PerkinElmer). For NCI-H1650 plates, cell viability was assessed through the addition of 40 μL of CellTiter Glo® 3D Cell Viability Assay substrate (Promega, cat #G9681), a reagent which lyses cells and measures total adenosine triphosphate (ATP) content. Wells were mixed thoroughly and plates were incubated at room temperature for 30 minutes to stabilize luminescent signals prior to reading using a luminescence reader (EnVision Multilabel Plate Reader, PerkinElmer).
(§7) To evaluate the effect of the drug treatments, luminescent counts from wells containing untreated cells (100% viability) were used to normalize treated samples. A variable slope model was applied to fit a nonlinear regression curve to the data in GraphPad PRISM version 7.02 software. IC50 and Amax values were extrapolated from the resultant curves. The concentrations of treatment required to inhibit 50% of cell growth or survival (IC50) were calculated with representative IC50 values of the cell lines tested summarized in Table 11.

NCI-H1650 = assay: CellTiter-Glo 3D proliferation assay, NCI-H1650 spheroids; conditions: Homo sapiens, NCI-H1650, 120 h, 5 days
Experimental: as §1, §2, §3, §4, §5, §6, §7

MOLT-4 cells = assay: MOLT-4 cell viability, MTT assay; conditions: Homo sapiens, MOLT-4, 48 h
Method in brief: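 MOLT-4 cells in RPMI 1640 with 10% FBS were exposed to compounds for 48 h at 9 concentrations (3.16-fold dilutions, triplicates). After 4 h with MTT and overnight SDS/HCl solubilisation, absorbance was read at 540 nm. IC50 came from four-parameter fits versus control, as the mean of ≥2 independent experiments.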

Bcl-xL = molecular target: T1, Bcl-xL (Homo sapiens, UniProt Q07817); assay: HCT116 Bcl-xL degradation, capillary-based immunoassay (WES); conditions: for remaining activity at 0.01 µM / remaining activity at 0.1 µM: HCT-116, 24 h, % of untreated cells; for remaining activity at 0.01 µM: HCT116, 10 nM; for remaining activity at 0.1 µM: HCT116, 100 nM; for DC50: HCT116, 24 h, 9-point serial dilution
T1 construct: Measured levels of Bcl-xL protein of HCT116 cells treated with the tested compounds; host or cells: HCT116
T1 sequence (Q07817 whole entry): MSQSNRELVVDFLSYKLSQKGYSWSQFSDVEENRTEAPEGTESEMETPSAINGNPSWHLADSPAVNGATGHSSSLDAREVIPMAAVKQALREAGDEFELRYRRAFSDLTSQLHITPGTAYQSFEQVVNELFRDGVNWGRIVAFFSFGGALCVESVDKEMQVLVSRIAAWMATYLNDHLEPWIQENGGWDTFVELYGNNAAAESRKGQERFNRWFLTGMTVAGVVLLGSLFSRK
Method in brief: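 HCT116 cells treated 24 h with compound at 10/100 nM and/or 9-point dilution (quadruplicates), then lysed. Bcl-xL measured by capillary WES immunoassay, normalized to cofilin and expressed as % of untreated cells. DC50 from four-parameter curve fit.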

[1] = system: EBC-1 lung cancer cell line; assay: EBC-1 cell proliferation, CellTiter-Glo assay; conditions: Homo sapiens, 120 h; Ebc-1 cell viability, CTG assay, 5 days of treatment; read-out: CTG 5 day Ebc1 GI50
Method in brief: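 EBC-1 cells seeded at 1000 per well overnight, then exposed to 10-point dilutions (0.508 nM–10 μM final) for 5 days at 37 °C, in triplicate. ATP luminescence by CellTiter-Glo, normalised to untreated wells; GI50 from four-parameter logistic fit, runs valid only with at least one doubling.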

HiBiT-tagged BCL-xL = molecular target: T2, HiBiT-tagged BCL-xL (Homo sapiens, UniProt Q07817); assay: NCI-H1650 BCL-xL protein levels, Nano-Glo HiBiT Lytic Detection; conditions: NCI-H1650 expressing HiBiT-tagged BCL-xL, overnight incubation, read-out: Bcl-xl HIBIT NCIH1650 DC50
T2 construct: expressed in transfected cells; host or cells: NCI-H1650 (ATCC No. CRL-5883), engineered HiBiT cell line
T2 sequence (Q07817 whole entry): as above
Method in brief: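 NCI-H1650 cells expressing HiBiT-tagged BCL-xL (5000/well) were treated overnight at 37° C with 10 concentrations, final 0.508 nM-10 μM, in triplicate. Remaining BCL-xL measured by Nano-Glo HiBiT lytic luminescence, normalized to untreated cells; 50% values by four-parameter logistic fit.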

Row | SMILES | IC50 (NCI-H1650) [nM] | IC50 (MOLT-4 cells) [nM] | remaining activity at 0.01 µM (Bcl-xL) [%] | remaining activity at 0.1 µM (Bcl-xL) [%] | DC50 (Bcl-xL) [nM] | GI50 [1] [nM] | DC50 (HiBiT-tagged BCL-xL) [nM] | IC50 (COR-L105) [nM] | Emax (COR-L105; read-out: COR-L105 Span (max)) [%] | Emax (NCI-H1650; read-out: NCI-H1650 Span (Amax)) [%]
1 | Cc1ncsc1-c1ccc([C@H](C)NC(=O)[C@@H]2C[C@@H](O)CN2C(=O)[C@@H](NC(=O)CCCCCCCCCCCN(C)CCOC23CC4(C)CC(C)(CC(Cn5ncc(-c6ccc(N7CCCc8c7nnc(Nc7nc9ccccc9s7)c8C)nc6C(=O)O)c5C)(C4)C2)C3)C(C)(C)C)cc1 [Example 2, 6-[3-(1,3-benzothiazol-2-ylamino)-4-methyl-6,7-dihydro-5H-pyrido[2,3-c]pyridazin-8-yl]-3-[1-[[3-[2-[[12-[[(1S)-1-[(2S,4R)-4-hydroxy-2-[[(1S)-1-[4-(4-methylthiazol-5-yl)phenyl]ethyl]carbamoyl]pyrrolidine-1-carbonyl]-2,2-dimethyl-propyl]amino]-12-oxo-dodecyl]-methyl-amino]ethoxy]-5,7-dimethyl-1-adamantyl]methyl]-5-methyl-pyrazol-4-yl]pyridine-2-carboxylic acid] | – | 1.06 | 26 | 11 | 0.286 | 13 | 1 | – | – | –
2 | Cc1ncsc1-c1ccc([C@H](C)NC(=O)[C@@H]2C[C@@H](O)CN2C(=O)[C@@H](NC(=O)CCCCCCCCCCCCCN(C)CCOC23CC4(C)CC(C)(CC(Cn5ncc(-c6ccc(N7CCCc8c7nnc(Nc7nc9ccccc9s7)c8C)nc6C(=O)O)c5C)(C4)C2)C3)C(C)(C)C)cc1 [Example 4, 6-[3-(1,3-benzothiazol-2-ylamino)-4-methyl-6,7-dihydro-5H-pyrido[2,3-c]pyridazin-8-yl]-3-[1-[[3-[2-[[14-[[(1S)-1-[(2S,4R)-4-hydroxy-2-[[(1S)-1-[4-(4-methylthiazol-5-yl)phenyl]ethyl]carbamoyl]pyrrolidine-1-carbonyl]-2,2-dimethyl-propyl]amino]-14-oxo-tetradecyl]-methyl-amino]ethoxy]-5,7-dimethyl-1-adamantyl]methyl]-5-methyl-pyrazol-4-yl]pyridine-2-carboxylic acid] | – | 0.85 | 33 | 14 | 0.279 | 1 | 0.4 | – | – | –
3 | Cc1ncsc1-c1ccc([C@H](C)NC(=O)[C@@H]2C[C@@H](O)CN2C(=O)[C@@H](NC(=O)CCCCCCN(C)CCOC23CC4(C)CC(C)(CC(Cn5ncc(-c6ccc(N7CCCc8c7nnc(Nc7nc9ccccc9s7)c8C)nc6C(=O)O)c5C)(C4)C2)C3)C(C)(C)C)cc1 [Example 3, 6-[3-(1,3-benzothiazol-2-ylamino)-4-methyl-6,7-dihydro-5H-pyrido[2,3-c]pyridazin-8-yl]-3-[1-[[3-[2-[[7-[[(1S)-1-[(2S,4R)-4-hydroxy-2-[[(1S)-1-[4-(4-methylthiazol-5-yl)phenyl]ethyl]carbamoyl]pyrrolidine-1-carbonyl]-2,2-dimethyl-propyl]amino]-7-oxo-heptyl]-methyl-amino]ethoxy]-5,7-dimethyl-1-adamantyl]methyl]-5-methyl-pyrazol-4-yl]pyridine-2-carboxylic acid] | – | 32.1 | 23 | 17 | 4.21 | 9 | 3 | – | – | –
4 | Cc1ncsc1-c1ccc(CNC(=O)[C@@H]2C[C@@H](O)CN2C(=O)[C@@H](NC(=O)CCCCC(=O)N2CCN(CC#Cc3ccc(OCCCc4sc(N5CCCc6c5nnc(Nc5nc7ccccc7s5)c6C)nc4C(=O)O)c(F)c3)CC2)C(C)(C)C)cc1 [Example 19, 2-[3-(1,3-benzothiazol-2-ylamino)-4-methyl-6,7-dihydro-5H-pyrido[2,3-c]pyridazin-8-yl]-5-[3-[2-fluoro-4-[3-[4-[6-[[(1S)-1-[(2S,4R)-4-hydroxy-2-[[4-(4-methylthiazol-5-yl)phenyl]methylcarbamoyl]pyrrolidine-1-carbonyl]-2,2-dimethyl-propyl]amino]-6-oxo-hexanoyl]piperazin-1-yl]prop-1-ynyl]phenoxy]propyl]thiazole-4-carboxylic acid] | – | 13.2 | 104 | 88 | – | 25 | > 1670 | – | – | –

The next lines start with results.

Row | IC50 (NCI-H1650) [nM] | IC50 (MOLT-4 cells) [nM] | remaining activity at 0.01 µM (Bcl-xL) [%] | remaining activity at 0.1 µM (Bcl-xL) [%] | DC50 (Bcl-xL) [nM] | GI50 [1] [nM] | DC50 (HiBiT-tagged BCL-xL) [nM] | SMILES | IC50 (COR-L105) [nM] | Emax (COR-L105; read-out: COR-L105 Span (max)) [%] | Emax (NCI-H1650; read-out: NCI-H1650 Span (Amax)) [%]
5 | 35.7 | 10.5 | 82 | 67 | – | – | – | Cc1ncsc1-c1ccc(CNC(=O)[C@@H]2CC(O)CN2C(=O)C(NC(=O)CCCCC(=O)N2CCN(CCOC34CC5(C)CC(C)(CC(Cn6ncc(-c7ccc(N8CCCc9c8nnc(Nc8nc%10ccccc%10s8)c9C)nc7C(=O)O)c6C)(C5)C3)C4)CC2)C(C)(C)C)cc1 (stereo in doubt) [Example 23, 6-[3-(1,3-benzothiazol-2-ylamino)-4-methyl-6,7-dihydro-5H-pyrido[2,3-c]pyridazin-8-yl]-3-[1-[[3-[2-[4-[6-[[(1S)-1-[(2S,4R)-4-hydroxy-2-[[4-(4-methylthiazol-5-yl)phenyl]methylcarbamoyl]pyrrolidine-1-carbonyl]-2,2-dimethyl-propyl]amino]-6-oxo-hexanoyl]piperazin-1-yl]ethoxy]-5,7-dimethyl-1-adamantyl]methyl]-5-methyl-pyrazol-4-yl]pyridine-2-carboxylic acid] | 183 | 100 | 71.4
6 | – | 16.2 | – | – | > 316 | 4 | > 1670 | Cc1ncsc1-c1ccc(CNC(=O)[C@@H]2C[C@@H](O)CN2C(=O)[C@@H](NC(=O)C2(F)CC2)C(C)(C)C)c(OCCCCCCN(C)CCOC23CC4(C)CC(C)(CC(Cn5ncc(-c6ccc(N7CCCc8c7nnc(Nc7nc9ccccc9s7)c8C)nc6C(=O)O)c5C)(C4)C2)C3)c1 [Example 137, 6-[3-(1,3-benzothiazol-2-ylamino)-4-methyl-6,7-dihydro-5H-pyrido[2,3-c]pyridazin-8-yl]-3-[1-[[3-[2-[6-[2-[[[(2S,4R)-1-[(2S)-2-[(1-fluorocyclopropanecarbonyl)amino]-3,3-dimethyl-butanoyl]-4-hydroxy-pyrrolidine-2-carbonyl]amino]methyl]-5-(4-methylthiazol-5-yl)phenoxy]hexyl-methyl-amino]ethoxy]-5,7-dimethyl-1-adamantyl]methyl]-5-methyl-pyrazol-4-yl]pyridine-2-carboxylic acid] | – | – | –
